Numbered stars: 1 amine (or outer) side, 2 acyl side, 3 side chain; on linkers, the order of the positions; unused ones are H or OH. Square brackets hold non-standard residues; d marks the D form. Peptide text beside a SMILES is read from it. Trp(3a,7a-dihydro) = N[C@@H](CC1=CNC2C=CC=CC12)C(=O)O; Butenoyl(2E,4-amino) = O=C(/C=C/CN[*:1])[*:2]; Dap(N3) = [N-]=[N+]=NC[C@H](N)C(=O)O; Pra = C#CC[C@H](N)C(=O)O
How the values were obtained:
[1] = test system: CTSS in WSU-DLCL2 cells; assay: CD74 accumulation assay in WSU-DLCL2 cells; type: cell-based, human; conditions: 48 hours, compared to PBS or antibody mixed to C10 in absence of linker
Method: (§1) FIG. 7. A-B CD74 accumulation after 48 hours-long anti-CD22 APeC treatment in WSU cells (A) and Raji cells (B). C-D CD74 accumulation after 48 hours-long anti-CD79 APeC treatment in WSU cells (C) and Raji cells (D). Single-cell fluorescence was measured by flow cytometry. CTSS inhibitor Petesicatib was used as positive control.
(§2) CD74 accumulation assay for efficacy assessment. To test the efficacy of our APeCs, 2×10^5 WSU-DLCL2 or Raji cells were incubated for two days with 300 or 500 ug/ml of APeC, in RPMI 1640 medium (ThermoFisher Scientific) supplemented with 10% FBS and 1% Penicillin-Streptomycin (ThermoFisher Scientific, cat. no. 15140122). After the first 24 h treatment, the cells were washed and resuspended in fresh APeC at the same treatment concentration. As negative controls, the same number of cells was either treated with PBS or with 300 ug/ml of the corresponding antibody previously incubated with C10 inhibitor in absence of DBCO-maleimide linker. […] Cells were then stained with anti-human CD74 antibody (BioLegend, cat. no. 357604) and fluorescence was measured by flow cytometry using BD LSRFortessa instrument (BD Biosciences). […] The gel was analysed by scanning in-gel fluorescence on a Typhoon Trio flat-bed laser scanner (GE Healthcare), and protein loading was confirmed by staining with Coomassie® Brilliant Blue R-250 (Schmidt GmbH). […]

[2] = test system: CTSS in Raji cells; assay: CD74 accumulation assay in Raji cells; type: cell-based, human; conditions: 48 hours, compared to PBS or antibody mixed to C10 in absence of linker
Method: as §1, §2

[3] = target: T1, CTSS in primary human B-cells (Homo sapiens, UniProt P25774); assay: qABP assay on primary human B-cells; type: cell-based; conditions: 2 different donors
T1 construct: endogenous in cells; host or cells: primary human B-cells (2 donors)
Description: FIG. 11. Output of quenched activity-based probe (qABP) assay on primary human B-cells. The presence of a dark band at a precise molecular weight indicates to the detection of a strong activity of the corresponding cathepsin. Absence of a band means complete cathepsin inhibition. APeC=antibody-peptide conjugate. ab=antibody.

[4] = target: T2, CTSS wild-type (Homo sapiens, UniProt P25774); assay: FRET assay to test CTSS activity (wild-type); type: biochemical
T2 construct: made in house; host or cells: HEK293
Description: (§3) Cathepsins protein expression and purification. For CTSS purification, the human CTSS sequence depleted of the lysosomal localization signal (amino acids 17 to 331) was amplified from pLVX plasmids expressing WT or Y132D CTSS using the following primers: […]
The PCR products were digested using Agel and Kpn1 restriction enzymes (NEB, cat #R3552S and #R3142S), then cloned in pHLsec plasmids carrying a secretion signal at the N-terminal of the MCS and a His-tag sequence at the C-terminal of the MCS. pHLsec-CTSS plasmids were transfected into HEK293 cells with PEI (polyethyleneimine) in presence of VPA (valproic acid). Proteins were purified from the supernatant using a 5 ml His-Trap FF column on an ÄKTA pure system (GE healthcare). Bound proteins were eluted using a 300 mM imidazole solution. Concentrated proteins were further purified by size exclusion chromatography on a HiLoad® 16/600 Superdex® 75 pg column (GE Healthcare) using PBS as mobile phase. Purified proteins were quantified by Nanodrop, diluted in a buffer containing 12.5 mM MES, 75 mM NaCl and 50% glycerol at ph 6.5 and stored at −20° C. […]
FRET (Fluorescence Resonance Energy Transfer) assay to test CTSS activity. […] The peptide was added to the activated CTSS (50 ul/well) and fluorescent emission (MCA) was measured with SpectraMax iD3 (Molecular Devices) in kinetic mode for three hours (excitation: 330 nm, emission: 390 nm). […]

[5] = target: T3, CTSS Y132D (Homo sapiens, UniProt P25774, Y132D); assay: FRET assay with mutated CTSS Y132D; type: biochemical
T3 construct: made in house; host or cells: HEK293
Description: as §3
The PCR products were digested using Agel and Kpn1 restriction enzymes (NEB, cat #R3552S and #R3142S), then cloned in pHLsec plasmids carrying a secretion signal at the N-terminal of the MCS and a His-tag sequence at the C-terminal of the MCS. pHLsec-CTSS plasmids were transfected into HEK293 cells with PEI (polyethyleneimine) in presence of VPA (valproic acid). Proteins were purified from the supernatant using a 5 ml His-Trap FF column on an ÄKTA pure system (GE healthcare). Bound proteins were eluted using a 300 mM imidazole solution. Concentrated proteins were further purified by size exclusion chromatography on a HiLoad® 16/600 Superdex® 75 pg column (GE Healthcare) using PBS as mobile phase. Purified proteins were quantified by Nanodrop, diluted in a buffer containing 12.5 mM MES, 75 mM NaCl and 50% glycerol at ph 6.5 and stored at −20° C. Purified CTSB and CTSH were purchased from RndSystems.
FRET (Fluorescence Resonance Energy Transfer) assay to test CTSS activity. For FRET experiments, CTSS-His was diluted to 10 μg/mL in assay buffer (50 mM NaOAc, 5 mM DTT, 250 mM NaCl), at pH 4.5 and incubated at 37° C. for 90 minutes to allow auto-activation. The protein was then diluted to 0.5 ng/ul in assay buffer and plated in 96-well plates (50 ul/well). […] The peptide was added to the activated CTSS (50 ul/well) and fluorescent emission (MCA) was measured with SpectraMax iD3 (Molecular Devices) in kinetic mode for three hours (excitation: 330 nm, emission: 390 nm).
It was recently reported that 5.7% of lymphoma patients harbour a specific gain of function mutation changing the tyrosine 132 in aspartate (Y132D) or asparagine (Y132N). […] This was measured through a FRET assay in which the inhibitor was incubated with CTSS Y132D. […]

[6] = target: T4, cathepsin B (CTSB) (Homo sapiens, UniProt P07858); assay: Specificity assay: FRET assay for CTSB activity; type: biochemical
T4 construct: purchased RndSystems
Method: (§4) Specificity assay. […] First, we used specific conditions to activate the enzymes. CTSB was diluted in a specific activation buffer (MES 25 mM, DTT 5 mM, pH 5) at 10 ug/ml, incubated at 37° C. for 2 h and then diluted to 1 ug/ml in assay buffer (MES 25 mM, pH 5) for the FRET assay. CTSH was diluted in a different activation buffer (MES 50 mM, CaCl2) 10 mM, NaCl 150 mM, pH 6.5) at 200 ug/ml. In addition, as co-stimulatory activator we used thermolysin diluted at 100 ug/ml in activation buffer and then mixed with an equal volume of the diluted CTSH. The solution was incubated for 1 h at room temperature and then we added 2 mM Phosphoramidon diluted in assay buffer (MES 50 mM, pH 6.5) and we incubated the mix for 10 minutes at room temperature. Lastly, we added an equal volume of assay buffer containing 20 mM DTT and incubated the solution for 5 minutes at room temperature. For the FRET assay, we diluted both CTSH, and CTSB at 1 ug/ml in their specific assay buffer and incubated them with a specific substrate. We used as substrate KPPKPVSD in CTSB FRET assays and KLRMKLPKP in CTSH FRET assays and we tested two doses of our P3 inhibitor (20 uM and 50 uM). Fluorescence emission was measured with SpectraMax iD3 (Molecular Devices) in kinetic mode over three hours (excitation: 330 nm, emission: 390 nm).

[7] = target: T5, cathepsin H (CTSH) (Homo sapiens, UniProt P09668); assay: Specificity assay: FRET assay for CTSH activity; type: biochemical; conditions: at 20 uM or 50 uM, 180 minutes
T5 construct: purchased RndSystems
Method: as §4

[8] = target: T6, CTSB in MCF-7 cells (Homo sapiens, UniProt P07858); assay: Quenched activity-based probe (qABP) assay in MCF-7 cells; type: cell-based; conditions: 16 hours, 500 ug/ml APeC, compared to PBS or antibody mixed to C10 without linker
T6 construct: endogenous in cells; host or cells: MCF-7
Method: FIG. 8. Output of quenched activity-based probe (qABP) assay. The presence of a dark band corresponds to the detection of a strong activity of CTSB. Absence of a band means complete CTSB inhibition. APeC=antibody-peptide conjugate. Ab=antibody.
as §2, with “linker. Each treatment condition was tested in duplicates.” for “linker.”

[9] = test system: WSU-DLCL2 cells; assay: Internalization assay by flow cytometry; type: cell-based; conditions: 100 ug/ml
Method: FIG. 6. A-B Results of internalization assay performed by incubating WSU-DLCL2 cells with the Epr-AF488 antibody for 3 hours at 37° C. (A) or 4° C. (B). Single-cell fluorescence was measured by flow cytometry.
Internalization assay. To test the internalization of the conjugated Epratuzumab antibody, 2×10^5 WSU-DLCL2 cells were incubated at 37° C. for 3 hours with 100 ug/ml of Epr-AF488 in PBS. As negative control, the same number of cells was incubated with 100 ug/ml of Epratuzumab previously incubated with AF488 dye in absence of DBCO-maleimide linker. Each experimental condition was tested in duplicates. Cells were then washed 3 times with PBS and 1 ul of anti-AF488 quencher antibody (ThermoFisher Scientific, A-11094) was added to half of the samples. Samples' fluorescence was measured by flow cytometry using Millipore Guava EasyCyte HT instrument (MilliporeSigma).

[10] = at 20 uM and at 50 uM, FRET, 180 minutes

T3 sequence (P25774 115-331 Y132D): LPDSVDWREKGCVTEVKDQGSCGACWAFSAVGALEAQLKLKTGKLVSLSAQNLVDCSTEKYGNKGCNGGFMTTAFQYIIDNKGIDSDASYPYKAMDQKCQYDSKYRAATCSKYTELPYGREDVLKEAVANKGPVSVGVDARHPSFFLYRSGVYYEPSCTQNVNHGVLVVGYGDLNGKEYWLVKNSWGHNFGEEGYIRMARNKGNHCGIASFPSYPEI
T2 sequence (P25774 115-331): as the sequence (P25774 115-331 Y132D) above, with D18Y counted along it
T1 sequence (P25774 115-331): as the sequence (P25774 115-331 Y132D) above, with D18Y counted along it
T5 sequence (P09668 116-335 limits assumed, other chains not shown): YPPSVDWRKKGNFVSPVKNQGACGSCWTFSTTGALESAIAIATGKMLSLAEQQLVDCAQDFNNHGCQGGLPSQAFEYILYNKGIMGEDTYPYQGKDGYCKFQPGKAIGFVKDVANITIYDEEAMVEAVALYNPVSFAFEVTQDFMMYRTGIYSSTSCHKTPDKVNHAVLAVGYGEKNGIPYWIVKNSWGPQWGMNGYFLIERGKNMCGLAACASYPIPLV

With Cn1cc(-c2ccc(S(=O)(=O)[C@@H]3C[C@@H](C(=O)NC4(C#N)CC4)N(C(=O)C4(C(F)(F)F)CC4)C3)c(C(F)(F)F)c2)cn1 [Petesicatib] the CD74 accumulation [1] was “lower than what we obtained with lower doses of our APeCs”, the CD74 accumulation [2] was “lower than what we obtained with lower doses of our APeCs” and the “CTSS inhibition (qABP band)” value [3] was “comparable”.

In the case of CSCC[C@H](NC(=O)[C@H](CCCNC(=N)N)NC(=O)[C@H](Cc1c[nH]cn1)NC(=O)[C@H](CCCCN)NC(=O)[C@H](CN=[N+]=[N-])NC(C)=O)C(=O)NC/C=C/C(=O)N[C@H](C(=O)N[C@@H](CCSC)C(=O)N[C@@H](Cc1c[nH]c2ccccc12)C(N)=O)C(C)C [C10, KHRM(Y)VMW] (Ac-[Dap(N3)]KHRM[Butenoyl(2E,4-amino)]VMW-NH2), the IC50 ([4]; FRET assay, dose-response, 50 minutes of incubation, wild-type CTSS) is reported as 0.0493 µM, the inhibition at 0.5 µM ([5]; at 500 nM, 50 minutes of incubation, read-out: reduction of CTSS Y132D activity (inhibition efficiency)) is reported as > 90% and the “reduction of CTSS Y132D activity” value ([5]; tested at 50 nM, 50 minutes of incubation) is reported as “more than 50%”.

With CSCC[C@H](NC(=O)[C@H](CC1=CNC2C=CC=CC12)NC(=O)/C=C/CNC(=O)[C@H](Cc1ccc(O)cc1)NC(=O)[C@H](CCCNC(=N)N)NC(=O)[C@H](CCCNC(=N)N)NC(=O)[C@H](CCCCN)NC(=O)[C@H](CN=[N+]=[N-])NC(C)=O)C(=O)N[C@@H](CC1=CNC2C=CC=CC12)C(N)=O (some centres unmarked) [D5, KRRY(Y)WMW] (Ac-[Dap(N3)]KRRY[Butenoyl(2E,4-amino)][Trp(3a,7a-dihydro)]M[Trp(3a,7a-dihydro)]-NH2) the IC50 ([6]; dose-response, 50 minutes of incubation) was 0.0619 µM.

In the case of C#CC[C@H](NC(C)=O)C(=O)N[C@@H](CCCCN)C(=O)N[C@@H](CC(C)C)C(=O)N[C@@H](CCCNC(=N)N)C(=O)N[C@@H](CCSC)C(=O)NC/C=C/C(=O)N1CCC[C@H]1C(=O)N[C@@H](CCCCN)C(=O)N[C@@H](CC(=O)O)C(N)=O [P3, KLRM(Y)PKD] (Ac-[Pra]KLRM[Butenoyl(2E,4-amino)]PKD-NH2), the “inhibition of wild-type CTSS” value [4, 10] is reported as “able to inhibit”, the “inhibition of mutant form of CTSS (Y132D)” value [5, 10] is reported as “able to inhibit” and the “inhibition of CTSH” value [7] is reported as “not significantly inhibited”. The “inhibitory activity on CTSB” value [6] was “some inhibitory activity”.

In the case of CC(C)C[C@H](NC(=O)[C@H]1O[C@@H]1C(=O)O)C(=O)NCCCCN=C(N)N [E64], the “residual CTSB activity” value [8] is reported as “inhibited CTSB activity as expected”.

In the case of “Epr-AF488: Epratuzumab antibody conjugated with AlexaFluor-488 azide-dye instead of C10”, the “internalization by lymphoma cells (inaccessible to quencher antibody)” value ([9]; 3 hours at 37° C.) is reported as “internalized” and the “binding to lymphoma cells” value ([9]; 3 hours, flow cytometry) is reported as “still able to bind lymphoma cells”.
